According to EP0942754B1, “CONJUGATES USEFUL IN THE TREATMENT OF PROSTATE CANCER” (priority 1996, dated 1998):
Non-standard residues stand in square brackets, D forms with d. Residues, ends and D or L forms follow the SMILES beside them. *: point of attachment. Doxorubicin(3'-N) = COc1cccc2c1C(=O)c1c(O)c3c(c(O)c1C2=O)C[C@@](O)(C(=O)CO)C[C@@H]3O[C@H]1C[C@H](N*)[C@H](O)[C@H](C)O1; Hyp = O=C(O)[C@@H]1C[C@@H](O)CN1; tBuAla = CC(C)(C)C[C@H](N)C(=O)O; Chg = N[C@H](C(=O)O)C1CCCCC1

Columns and labels:
DuPRO cells = experiment: In vitro cytotoxicity of peptidyl derivatives of doxorubicin, Alamar Blue assay, DuPRO cells; type: cell-based; details: DuPRO cells (value in parentheses in the LNCaP column), 72 HRS incubation, read-out: Cell Kill in 72 HRS EC 50 (µM), DuPRO
Experimental: (§1) The cytotoxicities of the cleaveable oligopeptide-doxorubicin conjugates, prepared as described in Examples 3 and 4, against a line of cells which is known to be killed by unmodified doxorubicin were assessed with an Alamar Blue assay. Specifically, cell cultures of LNCap prostate tumor cells (which express enzymatically active PSA) or DuPRO cells in 96 well plates was diluted with medium ([…]-α [MEM-α]) containing various concentrations of a given conjugate (final plate well volume of 200µl). The cells were incubated for 3 days at 37°C, 20µl of Alamar Blue is added to the assay well. The cells were further incubated and the assay plates were read on a EL-310 ELISA reader at the dual wavelengths of 570 and 600 nm at 4 and 7 hours after addition of Alamar Blue. Relative percentage viability at the various concentration of conjugate tested was then calculated versus control (no conjugate) cultures. If no salt is indicated, the free conjugate was tested.

[1] = test system: LNCap prostate tumor cells (which express enzymatically active PSA); experiment: In vitro cytotoxicity of peptidyl derivatives of doxorubicin, Alamar Blue assay, LNCaP cells; type: cell-based; details: 72 HRS incubation, free conjugate tested, read-out: LNCaP Cell Kill in 72 HRS EC 50
Experimental: as §1

[2] = molecular target: T1, enzymatically active free PSA (Homo sapiens, UniProt P07288); experiment: Recognition of oligopeptide-doxorubicin conjugates by free PSA (HPLC, time to 50% cleavage); type: biochemical; details: conjugate added to PSA at a molar ratio of 100 to 1 in PSA digestion buffer; free conjugate tested
T1 construct: enzymatically active free PSA
T1 sequence (P07288 25-261): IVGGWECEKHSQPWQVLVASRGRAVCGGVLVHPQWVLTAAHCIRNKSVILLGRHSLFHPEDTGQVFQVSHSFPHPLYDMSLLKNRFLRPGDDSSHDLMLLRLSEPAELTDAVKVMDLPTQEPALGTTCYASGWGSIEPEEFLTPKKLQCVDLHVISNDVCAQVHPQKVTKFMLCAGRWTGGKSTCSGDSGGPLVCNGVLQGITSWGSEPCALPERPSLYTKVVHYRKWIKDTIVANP
Experimental: The conjugates prepared as described in Examples 3-5 were individually dissolved in PSA digestion buffer (12 mM tris(hydroxymethyl)-aminomethane pH8.0, 25 mM NaCl, 0.5 mM CaCl2) and the solution added to PSA at a molar ration of 100 to 1. Alternatively, the PSA digestion buffer utilized is 50 mM tris(hydroxymethyl)-aminomethane pH7.4, 140 mM NaCl. The reaction is quenched after various reaction times by the addition of trifluoroacetic acid (TFA) to a final 1% (volume/volume). Alternatively the reaction is quenched with 10mM ZnCl2. The quenched reaction was analyzed by HPLC on a reversed-phase C18 column using an aqueous 0.1%TFA/acetonitrile gradient. […] If no salt is indicated for the conjugate, the free conjugate was tested. The oligopeptide-cytotoxic agent conjugates described in Examples 4 and 5 were assessed for the amount of time (in minutes) required for 50% cleavage of the oligopeptide with enzymatically active free PSA and 50% cleavage occurred in less than 2 hours for those conjugates.

Row | Compound | EC50 (DuPRO cells) [µM] | EC50 [1] [µM] | Time to 50% Substrate Cleavage by PSA [2] [min] | Time to 50% Substrate Cleavage by PSA (Min) [2]
1 | COc1cccc2c1C(=O)c1c(O)c3c(c(O)c1C2=O)C[C@@](O)(C(=O)CO)C[C@@H]3O[C@H]1C[C@H](NC(=O)[C@H](CC(C)C)NC(=O)[C@H](CO)NC(=O)[C@H](CCC(N)=O)NC(=O)[C@@H](NC(=O)[C@H](CO)NC(=O)[C@H](C)NC(=O)[C@@H]2C[C@@H](O)CN2C(C)=O)C2CCCCC2)[C@H](O)[C@H](C)O1 [Ac-(4-trans-L-Hyp)ASChgQ-SL-DOX (3'), [N-Ac-(4-trans-L-Hyp)]-Ala-Ser-Chg-Gln-Ser-Leu-Dox] (HELM PEPTIDE1{[ac].[Hyp].A.S.[O=C([C@@H](N[*:1])C1CCCCC1)[*:2]].Q.S.L.[COc1cccc2c1C(=O)c1c(O)c3c(c(O)c1C2=O)C[C@@](O)(C(=O)CO)C[C@@H]3O[C@H]1C[C@H](N[*:1])[C@H](O)[C@H](C)O1]}$$$$V2.0) | 90 | 4.5 | 20 | 
2 | COc1cccc2c1C(=O)c1c(O)c3c(c(O)c1C2=O)C[C@@](O)(C(=O)CO)C[C@@H]3O[C@H]1C[C@H](NC(=O)[C@H](CC(C)(C)C)NC(=O)[C@H](CO)NC(=O)[C@H](CCC(N)=O)NC(=O)[C@@H](NC(=O)[C@H](CO)NC(=O)[C@H](C)NC(=O)[C@@H]2C[C@@H](O)CN2C(C)=O)C2CCCCC2)[C@H](O)[C@H](C)O1 [Ac-(4-trans-L-Hyp)ASChgQ-StBuAla-DOX (3')] (Ac-[Hyp]AS[Chg]QS[tBuAla]-{Doxorubicin(3'-N)}) | > 100 | 100 | 25 | 
3 | Ac-(4-trans-L-Hyp)ASChgQ-SThi-DOX (3') |  |  |  | INSOLUBLE
4 | PEG(2)-(4-trans-L-Hyp)ASChgQ-SL-DOX (3') |  |  | 20 | 
